One data set deals with peritoneal macrophages. Briefly: ELISA for TNF-α and IL-6 on peritoneal macrophages from WT and TLR7−/− mice. The settings on record: Dotap formulations of miRNA. In kind it is cell-based, mouse. How it is done: (§1) Experiments were performed to determine whether the miRNA-TLR interaction is functional, and assessed whether the miRNAs of interest induce the secretion of cytokines such as TNF-α and IL-6, whose production is increased by TLR activation. We isolated peritoneal macrophages from WT and TLR7^−/− B6 mice. Cells were treated with Dotap alone or with Dotap formulations of miR-16, -21, -29a, and -147, and an ELISA for TNF-α and IL-6 was performed. In the functional assays, included also were miR-147 and -574-5p, because they have a mature viral-derived sequence that induces cytokine production through the activation of TLR8 and TLR7, similar to that of RNA33 (FIG. 14A). […] We also treated spleen cells from WT and TLR7^−/− mice with the same miRNAs and assessed expression of CD69, an early activation marker of cells which has a role in inflammation and proliferation and which also is activated by TLR3. Polyinosinic:polycytidylic acid [poly (I:C)], a known agonist of TLR3, served as positive control.
For all experiments, cells were treated with 15 μg of HPLC-purified synthetic miRNAs (Integrated DNA Technologies) complexed with Dotap Liposomal Transfection Reagent (Roche) as previously described.
Macrophages derived from the peritoneal cavity were isolated from WT and TLR7^−/− age- and sex-matched mice.
PBMC were isolated from heparinized blood of healthy donors by Ficoll-Paque (Pharmacia) centrifugation (500×g) following the manufacturer's instructions and were plated immediately for stimulation. Human PBMCs or murine peritoneal macrophages (300,000 cells) were stimulated with synthetic miRNAs for 24 h; then ELISAs for TNF-α and IL-6 were performed on the conditioned media using Multi-Analyte ELISArray Kits (SABiosciences) following the manufacturer's instructions.
On the technique in general: An ELISA detects its analyte on a solid surface through an enzyme-linked reagent.

The next data set deals with spleen cells. Nature of the data set: Flow-cytometric analysis of CD69 in spleen cells of WT and TLR7−/− mice. In kind it is cell-based, mouse. The settings on record: cytofluorimetry. The protocol:
as §1
Total splenocytes derived from WT and TLR7^−/− age- and sex-matched mice were prepared by harvesting the spleen and preparing a single-cell suspension. Red blood cells were eliminated by osmotic lysis using red blood cell lysis buffer (eBioscience). […] Cells were stained with phycoerythrin-conjugated anti-CD69 (BioLegend) antibody and analyzed using FACSCalibur flow cytometer (Becton Dickinson).

The mark [1] stands for this setting: peritoneal macrophages of TLR7−/− B6 mice.
[2] abbreviates: peritoneal macrophages of WT B6 mice.

Turning to “miR-147: synthetic mature miRNA (SEQ ID NO: 3), sequence similar to RNA33, Dotap formulation (GUGUGUGGAAAUGCUUCUGC; DOTAP formulation, further chemistry not given here)”, the figures for the IL-6 production result with peritoneal macrophages (setting [1]) and in the data set on peritoneal macrophages (setting [2]) were “not” and “increased”, respectively. Moreover, the results for the TNF-α production entry in the data set on peritoneal macrophages (setting [1]) and with peritoneal macrophages (setting [2]) were “not” and “increased”, respectively. The figures for the CD69 activation entry in the data set with spleen cells (spleen cells from TLR7−/− mice) and in the data set on spleen cells (spleen cells from WT mice) were “not” and “induced”, respectively.

The record behind these values is US9481885B2, “Methods and compositions related to miR-21 and miR-29a, exosome inhibition, and cancer metastasis” (Ohio State Innovation Foundation, priority 2011, dated 2016).
